This note sets out measurements from ChEMBL document CHEMBL1155321, “Dopamine D3 receptor antagonists: the quest for a potentially selective PET ligand. Part 3: Radiosynthesis and in vivo studies” (Bioorg Med Chem Lett, 2009).

Data set [1] can be described thus: Intrinsic clearance in human liver microsomes. In kind it is ADME, Microsome. Background: Microsomes from liver hold many membrane-bound enzymes, among them those of drug oxidation.
Data set [2] in a line: Intrinsic clearance in rat liver microsomes. It counts as ADME, Microsome.

As usually defined, the CLint scaled is the capacity of the preparation to metabolise the compound, expressed as a volume cleared per time. Higher therefore signals faster metabolism. On to `O=C1N(CCN2Cc3ccccc3C2)CCN1c1cccc(Cl)c1`, for which the intrinsic clearance (CLint scaled) in data set [1] is 8.9 mL/min/kg; in data set [2], 36.9 mL/min/kg.
